≈ marks a conversion by molar mass, not a printed value. Where “and” joins values, the source holds several entries; their conditions need not be identical. Equal entries are not always repeated.
How the values were obtained:
[1] = tested on: C. albicans (ATCC 10231); assay: Membrane permeabilization assay; type: cell-based; settings: 8b, 8c at 1 × MIC, 2 × MIC, 4 × MIC (0.5, 1, 2 μg/mL); AMB 1 μg/mL; 3 h at 28 °C
[2] = tested on: C. albicans (ATCC 10231); assay: Microdilution MIC90, strain A; type: cell-based; settings: for MIC90: 24 h, yeast, 24 h at 37 °C, triplicate
[3] = tested on: FLC-resistant clinical C. albicans isolate (R1) biofilm; assay: Antibiofilm MTT reduction assay, strain R1; type: cell-based; settings: triplicate
[4] = tested on: Asp. nidulans (PTCC 5014); assay: Microdilution MIC90, strain F; type: cell-based, Aspergillus nidulans; settings: filamentous fungi, 48 h at 37 °C, triplicate
[5] = tested on: Asp. terreus (PTCC 5023); assay: Microdilution MIC90, strain J; type: cell-based, Aspergillus terreus; settings: Aspergillus terreus, PTCC5023, 48 h, filamentous fungi, 48 h at 37 °C, triplicate
[6] = tested on: FLC-resistant clinical Candida isolate R2 (C. albicans); assay: PMIC90, FLC-resistant isolate R2; type: cell-based; settings: strain R2, planktonic
[7] = tested on: Asp. niger (PTCC 5154); assay: Microdilution MIC90, strain I; type: cell-based, Aspergillus niger; settings: Aspergillus niger, PTCC5154, 48 h, filamentous fungi, 48 h at 37 °C, triplicate
[8] = tested on: human red blood cells (hRBCs); assay: Hemolysis assay; type: cell-based; settings: 100 μg/mL, 2 h at 37 °C
[9] = tested on: FLC-resistant clinical C. albicans isolate (R2) biofilm; assay: Antibiofilm MTT reduction assay, strain R2; type: cell-based; settings: triplicate
[10] = tested on: FLC-resistant clinical Candida isolates (R1–R7); assay: PMIC, seven FLC-resistant clinical Candida isolates; type: cell-based; settings: read-out: MIC (growth inhibition concentrations)
[11] = tested on: FLC-resistant clinical Candida isolate R4 (C. albicans); assay: PMIC90, FLC-resistant isolate R4; type: cell-based; settings: strain R4, planktonic
[12] = tested on: C. albicans (ATCC 10231); assay: Murine model of systemic candidiasis; type: in vivo; settings: neutropenic mice (n = 5), 15 mg/kg oral gavage, left kidney tissue
[13] = tested on: FLC-resistant clinical Candida isolate R3 (C. albicans); assay: PMIC90, FLC-resistant isolate R3; type: cell-based; settings: strain R3, planktonic
[14] = tested on: HDF normal cells; assay: MTT cytotoxicity assay, HDF; type: cell-based, human; settings: HDF normal cell line, up to 100 μg/mL, 48 h
[15] = tested on: C. tropicalis (PTCC 5028); assay: Microdilution MIC90, strain E; type: cell-based; settings: 24 h
[16] = tested on: C. parapsilosis (ATCC 22019); assay: Microdilution MIC90, strain D; type: cell-based; settings: 24 h
[17] = tested on: C. krusei (ATCC 6258); assay: Microdilution MIC90, strain B; type: cell-based; settings: for MIC90: 24 h, yeast, 24 h at 37 °C, triplicate
[18] = tested on: A-431; assay: MTT cytotoxicity assay, A-431; type: cell-based, human; settings: 48 h, MTT
[19] = tested on: FLC-resistant clinical Candida isolate R1 (C. albicans); assay: PMIC90, FLC-resistant isolate R1; type: cell-based; settings: strain R1, planktonic
[20] = tested on: FLC-resistant clinical Candida isolate R7 (C. glabrata); assay: PMIC90, FLC-resistant isolate R7; type: cell-based; settings: strain R7, planktonic
[21] = tested on: C. glabrata (ATCC 90030); assay: Microdilution MIC90, strain C; type: cell-based; settings: yeast, 24 h at 37 °C, triplicate
[22] = tested on: T. mentagrophytes (PTCC 5054); assay: Microdilution MIC90, strain M; type: cell-based; settings: Trichophyton mentagrophytes, PTCC5054, 48 h
[23] = tested on: FLC-resistant clinical Candida isolate R6 (C. albicans); assay: PMIC90, FLC-resistant isolate R6; type: cell-based; settings: strain R6, planktonic
[24] = tested on: M. canis (PTCC 5069); assay: Microdilution MIC90, strain O; type: cell-based; settings: Microsporum canis, PTCC5069, 48 h
[25] = tested on: T. schoenleinii (PTCC 5221); assay: Microdilution MIC90, strain N; type: cell-based; settings: Trichophyton schoenleinii, PTCC5221, 48 h
[26] = tested on: Asp. flavus (ATCC 204304); assay: Microdilution MIC90, strain G; type: cell-based, Aspergillus flavus; settings: filamentous fungi, 48 h at 37 °C, triplicate
[27] = tested on: PANC-1; assay: MTT cytotoxicity assay, PANC-1; type: cell-based, human; settings: 48 h
[28] = tested on: T. rubrum (PTCC 5143); assay: Microdilution MIC90, strain K; type: cell-based, Trichophyton rubrum; settings: filamentous fungi, 48 h at 37 °C, triplicate
[29] = tested on: C. albicans (ATCC 10231); assay: Time-kill assay; type: cell-based; settings: 24 h period
[30] = tested on: FLC-resistant clinical Candida isolate R5 (C. albicans); assay: PMIC90, FLC-resistant isolate R5; type: cell-based; settings: strain R5, planktonic
[31] = tested on: Asp. fumigatus (PTCC 5009); assay: Microdilution MIC90, strain H; type: cell-based; settings: Aspergillus fumigatus, PTCC5009, 48 h, filamentous fungi, 48 h at 37 °C, triplicate
[32] = tested on: Microsporum gypseum (PTCC 5070); assay: Microdilution MIC90, strain L; type: cell-based; settings: filamentous fungi, 48 h at 37 °C, triplicate
[33] = Aspergillus nidulans, PTCC5014, 48 h
[34] = Aspergillus flavus, ATCC204304, 48 h
[35] = Trichophyton rubrum, PTCC5143, 48 h

## C[C@@H]1[C@H](O)[C@@H](C)/C=C/C=C/C=C/C=C/C=C/C=C/C=C/[C@H](O[C@@H]2O[C@H](C)[C@@H](O)[C@H](N)[C@@H]2O)C[C@@H]2O[C@](O)(C[C@@H](O)C[C@@H](O)[C@H](O)CC[C@@H](O)C[C@@H](O)CC(=O)O[C@H]1C)C[C@H](O)[C@H]2C(=O)O [AMB, amphotericin B, reference compound]
[1]
  cellular uptake of the PI dye: increased the PI dye uptake
[2]; Candida albicans, ATCC10231
  MIC: 1 µg/mL (≈ 1.08 µM)

## O=C(Nc1ccc(F)cc1)Nc1nnc(SCC(O)(Cn2cncn2)c2ccc(F)cc2F)s1 (centres unmarked) [Compound 8c, 1-(5-((2-(2,4-Difluorophenyl)-2-hydroxy-3-(1H-1,2,4-triazol-1-yl)propyl)thio)-1,3,4-thiadiazol-2-yl)-3-(4-fluorophenyl)urea]
[3]
  SMIC90 (sessile minimum inhibitory concentration that reduced the metabolic activity of biofilms by 90%): 1 µg/mL
[4]; [33]
  MIC90: 16 µg/mL (≈ 31.5 µM)
[5]
  MIC90: 0.5 µg/mL (≈ 0.985 µM)
[6]
  PMIC90: 1 µg/mL
[7]
  MIC90: 0.5 µg/mL (≈ 0.985 µM)
[8]
  hemolysis (in words): limited hemolysis
[9]
  SMIC90 (sessile minimum inhibitory concentration that reduced the metabolic activity of biofilms by 90%): 1 µg/mL
[10]
  MIC: 0.25 to 2 µg/mL (≈ 0.493 to 3.94 µM)
[11]
  PMIC90: 2 µg/mL
[12]
  kidney fungal burden, CFU/g (mean ± SD): 438 CFU/g and 438 ± 54.8 ^b CFU/g
[13]
  PMIC90: 2 µg/mL
[14]
  toxicity (in words): none of the active compounds displayed toxicity
[15]
  MIC90: 0.5 µg/mL (≈ 0.985 µM)
[16]
  MIC90: 2 µg/mL (≈ 3.94 µM)
[17]
  MIC90: 0.5 µg/mL (≈ 0.985 µM)
[17]; from MIC values
  fold greater potency than that of FLC: 32 fold
[1]
  cellular uptake of the PI dye: none of our compounds 8b and 8c (at 1 × MIC, 2 × MIC, or 4 × MIC) induced the cellular uptake of the PI dye
[18]; A-431, 100 μg/mL
  toxicity (in words): some toxicity levels
[18]; A-431, up to 60 μg/mL
  toxicity (in words): no toxicity
[19]
  PMIC90: 0.5 µg/mL
[20]
  PMIC90: 2 µg/mL
[21]; 24 h
  MIC90: 0.5 µg/mL (≈ 0.985 µM)
[22]
  MIC90: 2 µg/mL (≈ 3.94 µM)
[23]
  PMIC90: 2 µg/mL
[24]
  MIC90: 16 µg/mL (≈ 31.5 µM)
[2]; strain A
  MIC90: 0.5 µg/mL (≈ 0.985 µM)
[2]; strain A, from MIC values
  fold greater potency than that of FLC: 32 fold
[25]
  MIC90: 16 µg/mL (≈ 31.5 µM)
[26]; [34]
  MIC90: 16 µg/mL (≈ 31.5 µM)
[27]; PANC-1, 100 μg/mL
  cell survival: > 40%
[27]; PANC-1, at 30 and 60 μg/mL
  toxicity (in words): no toxicity
[28]; [35]
  MIC90: 4 µg/mL (≈ 7.88 µM)
[29]; at 4 × MIC (2 μg/mL for 8b, 8c; 64 μg/mL for FLC)
  time-kill effect at 4 × MIC: high fungicidal effect
[29]; at MIC (0.5 μg/mL)
  time-kill effect at MIC: fungistatic effect
[30]
  PMIC90: 2 µg/mL
[31]
  MIC90: 0.5 µg/mL (≈ 0.985 µM)

## O=C(Nc1cccc(F)c1)Nc1nnc(SCC(O)(Cn2cncn2)c2ccc(F)cc2F)s1 (centres unmarked) [Compound 8g, 1-(5-((2-(2,4-Difluorophenyl)-2-hydroxy-3-(1H-1,2,4-triazol-1-yl)propyl)thio)-1,3,4-thiadiazol-2-yl)-3-(3-fluorophenyl)urea]
[4]; [33]
  MIC90: 8 µg/mL (≈ 15.8 µM)
[5]
  MIC90: 32 µg/mL (≈ 63.1 µM)
[7]
  MIC90: 16 µg/mL (≈ 31.5 µM)
[32]
  MIC90: 4 μg·mL^–1
[15]
  MIC90: 16 µg/mL (≈ 31.5 µM)
[16]
  MIC90: 0.5 µg/mL (≈ 0.985 µM)
[17]
  MIC90: 2 µg/mL (≈ 3.94 µM)
[21]; 24 h
  MIC90: 1 to 16 µg/mL (≈ 1.97 to 31.5 µM)
[21]
  MIC90: 1 μg·mL^–1
[22]
  MIC90: 16 µg/mL (≈ 31.5 µM)
[24]
  MIC90: 8 µg/mL (≈ 15.8 µM)
[2]; strain A
  MIC90: 2 µg/mL (≈ 3.94 µM)
[25]
  MIC90: 8 µg/mL (≈ 15.8 µM)
[26]; [34]
  MIC90: 2 to 4 µg/mL (≈ 3.94 to 7.88 µM)
[26]
  MIC90: 4 μg·mL^–1
[28]; [35]
  MIC90: 4 µg/mL (≈ 7.88 µM)
[31]
  MIC90: 16 µg/mL (≈ 31.5 µM)

## O=C(Nc1ccccc1)Nc1nnc(SCC(O)(Cn2cncn2)c2ccc(F)cc2F)s1 (centres unmarked) [Compound 8o, 1-(5-((2-(2,4-Difluorophenyl)-2-hydroxy-3-(1H-1,2,4-triazol-1-yl)propyl)thio)-1,3,4-thiadiazol-2-yl)-3-phenylurea]
[4]; [33]
  MIC90: 2 to 4 µg/mL (≈ 4.09 to 8.17 µM)
[4]
  MIC90: 2 μg·mL^–1
[5]
  MIC90: 8 µg/mL (≈ 16.3 µM)
[7]
  MIC90: 32 µg/mL (≈ 65.4 µM)
[32]
  MIC90: 4 μg·mL^–1
[15]
  MIC90: 16 µg/mL (≈ 32.7 µM)
[16]
  MIC90: 8 µg/mL (≈ 16.3 µM)
[17]
  MIC90: 32 µg/mL (≈ 65.4 µM)
[21]; 24 h
  MIC90: 32 µg/mL (≈ 65.4 µM)
[22]
  MIC90: 16 µg/mL (≈ 32.7 µM)
[24]
  MIC90: 16 µg/mL (≈ 32.7 µM)
[25]
  MIC90: 16 µg/mL (≈ 32.7 µM)
[26]; [34]
  MIC90: 8 µg/mL (≈ 16.3 µM)
[28]; [35]
  MIC90: 2 to 4 µg/mL (≈ 4.09 to 8.17 µM)
[28]
  MIC90: 4 μg·mL^–1
[31]
  MIC90: 32 µg/mL (≈ 65.4 µM)
